Laboratory results: ChEMBL document CHEMBL1201862, “PubChem BioAssay data set” (2004)
Active and inactive are the calls of the source.

What was measured:
[1] = target: Protein Rev (Human immunodeficiency virus type 1 group M subtype B (isolate HXB2)(HIV-1), UniProt P04618); assay: inhibitors of Rev binding to RRE RNA, dose response, biochemical, fluorescence polarization, HIV-1 (AID 434976); design: species or system Human immunodeficiency virus 1
[2] = target: Female germline-specific tumor suppressor gld-1 (Caenorhabditis elegans, UniProt Q17339); assay: inhibitors of GLD-1 binding to TGE RNA, dose response, biochemical, fluorescence polarization, C. elegans (AID 2802);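 also: fluorescence polarization of labeled TGE RNA bound by purified gld-1 protein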
[3] = system: Vero; assay: Vero cell cytotoxicity, cytotoxicity control for flavivirus capping enzyme inhibitors (AID 588742); assay type: functional; conditions: Chlorocebus sabaeus
[4] = target: Genome polyprotein (dengue virus type 2, UniProt P29990); assay: Dengue-2 NS5 methyltransferase inhibitors, primary screen, biochemical, confirmation dose response (AID 588689); assay type: functional
[5] = inhibition of K1F phage lysis, E. coli UTI89, bacterial capsule biogenesis inhibitors, alamar blue (AID 488966); assay type: functional
[6] = cells; assay type: functional
[7] = inhibitors of firefly luciferase expression or activity, dose response, H4 neuroglioma cells, luminescence (AID 1990); assay type: functional, cell-based
[8] = Luminescence Cell-Based Dose Response HTS to Identify Inhibitors of 5'UTR Stem-Loop Driven Prion Protein mRNA Translation in H4 Neuroglioblastoma Cells. [Related pubchem assays: 1827 (Project Summary), 1813 (Primary HTS)]; assay type: functional
[9] = inhibitors of SNCA 5'UTR-driven reporter translation, confirmation, H4 neuroglioma cells, luminescence (AID 1988); assay type: functional, cell-based
[10] = cytotoxicity in HEK-293T cells, dose response, cytotoxicity control for BCR NF-kB inhibitor project, luminescence, B-cell screen hits (AID 489021); assay type: functional, cell-based;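 also: HEK-293T cells carrying an NF-kB luciferase reporter; cells exposed to compound for about 14 hours before viability readout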
[11] = target: Scavenger receptor class B member 1 (Mus musculus, UniProt Q61009); assay: inhibitors of SR-BI mediated HDL lipid uptake, dose response, ldlA[mSR-BI] cells, fluorescence, cherry pick (AID 493194); assay type: functional, cell-based;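 also: cellular uptake of fluorescent DiI-labeled HDL measured as cell fluorescence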
[12] = target: Glucose-6-phosphate 1-dehydrogenase (Homo sapiens, UniProt P11413); assay: human G6PD enzyme inhibitors, dose response, selectivity assay for P. falciparum G6PD inhibitor project, biochemical, fluorescence (AID 504792); assay type: functional
[13] = inhibition of ADP-Glo detection reagents, dose response, artefact control for CDK5 inhibitor project, biochemical, luminescence, cherry-picked samples, set 2 (AID 504546); assay type: functional
[14] = target: Cyclin-dependent kinase 5/CDK5 activator 1 (Homo sapiens, UniProt Q00535); assay: CDK5/p35 kinase inhibitors, dose response, biochemical, cherry-picked samples, set 2 (AID 504545)
[15] = target: Nonstructural protein 1 (Influenza A virus, UniProt Q194T2); assay type: functional, Influenza A virus (A/California/07/2009(H1N1))
[16] = target: Heat shock protein HSP 90-alpha (Homo sapiens, UniProt P07900); assay type: functional, organism-based
[17] = Fluorescence-based cell-based high throughput dose response assay for inhibitors of the interaction of nucleotide-binding oligomerization domain containing 2 (NOD2) and the receptor-interacting serine-threonine kinase 2 (RIPK2).; assay type: functional; conditions: Homo sapiens
[18] = target: Beta Lactamase (Pseudomonas aeruginosa, UniProt Q932Y6); assay: beta-lactamase reporter inhibitor potency, dose response, artefact control for NOD2-RIPK2 interaction inhibitor project, BLA reporter cells, FRET fluorescence (AID 651552); assay type: functional, cell-based
[19] = HeLa cell cytotoxicity, dose response, cytotoxicity control for MgcRacGAP inhibitor project (AID 624300); assay type: functional
[20] = target: T1, Rac GTPase-activating protein 1 (Homo sapiens, UniProt Q9H0H5); assay: MgcRacGAP GTPase-activating activity inhibitors, confirmation, biochemical, ADP Hunter fluorescence, primary and confirmatory (AID 624330); assay type: functional
T1 sequence (Q9H0H5 whole entry): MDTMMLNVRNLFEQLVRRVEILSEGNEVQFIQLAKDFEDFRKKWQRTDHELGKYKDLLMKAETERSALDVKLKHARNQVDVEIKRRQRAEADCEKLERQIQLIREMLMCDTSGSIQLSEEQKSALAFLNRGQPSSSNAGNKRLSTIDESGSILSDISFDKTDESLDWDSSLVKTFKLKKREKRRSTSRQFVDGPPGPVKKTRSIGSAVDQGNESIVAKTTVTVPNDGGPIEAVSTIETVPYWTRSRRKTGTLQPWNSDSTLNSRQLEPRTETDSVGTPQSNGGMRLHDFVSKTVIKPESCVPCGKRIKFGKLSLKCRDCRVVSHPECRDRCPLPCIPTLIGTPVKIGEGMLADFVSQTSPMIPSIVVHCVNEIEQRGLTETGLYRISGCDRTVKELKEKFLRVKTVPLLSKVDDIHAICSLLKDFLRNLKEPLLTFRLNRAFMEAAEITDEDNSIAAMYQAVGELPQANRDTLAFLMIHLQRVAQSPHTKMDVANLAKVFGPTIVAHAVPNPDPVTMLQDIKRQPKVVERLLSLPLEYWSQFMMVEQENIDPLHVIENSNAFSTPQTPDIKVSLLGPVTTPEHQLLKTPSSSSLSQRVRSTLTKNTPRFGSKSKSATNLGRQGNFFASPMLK

[21] = target: Matrix metalloproteinase-14 (Homo sapiens, UniProt P50281); assay: Dose Response confirmation of uHTS hits for a small molecule inhibitors of MT1-MMP activation in a fluorescence assay set 1.; assay type: functional
[22] = target: T2, Histone-lysine N-methyltransferase NSD2 (Homo sapiens, UniProt O96028); assay type: biochemical
T2 sequence (O96028 whole entry): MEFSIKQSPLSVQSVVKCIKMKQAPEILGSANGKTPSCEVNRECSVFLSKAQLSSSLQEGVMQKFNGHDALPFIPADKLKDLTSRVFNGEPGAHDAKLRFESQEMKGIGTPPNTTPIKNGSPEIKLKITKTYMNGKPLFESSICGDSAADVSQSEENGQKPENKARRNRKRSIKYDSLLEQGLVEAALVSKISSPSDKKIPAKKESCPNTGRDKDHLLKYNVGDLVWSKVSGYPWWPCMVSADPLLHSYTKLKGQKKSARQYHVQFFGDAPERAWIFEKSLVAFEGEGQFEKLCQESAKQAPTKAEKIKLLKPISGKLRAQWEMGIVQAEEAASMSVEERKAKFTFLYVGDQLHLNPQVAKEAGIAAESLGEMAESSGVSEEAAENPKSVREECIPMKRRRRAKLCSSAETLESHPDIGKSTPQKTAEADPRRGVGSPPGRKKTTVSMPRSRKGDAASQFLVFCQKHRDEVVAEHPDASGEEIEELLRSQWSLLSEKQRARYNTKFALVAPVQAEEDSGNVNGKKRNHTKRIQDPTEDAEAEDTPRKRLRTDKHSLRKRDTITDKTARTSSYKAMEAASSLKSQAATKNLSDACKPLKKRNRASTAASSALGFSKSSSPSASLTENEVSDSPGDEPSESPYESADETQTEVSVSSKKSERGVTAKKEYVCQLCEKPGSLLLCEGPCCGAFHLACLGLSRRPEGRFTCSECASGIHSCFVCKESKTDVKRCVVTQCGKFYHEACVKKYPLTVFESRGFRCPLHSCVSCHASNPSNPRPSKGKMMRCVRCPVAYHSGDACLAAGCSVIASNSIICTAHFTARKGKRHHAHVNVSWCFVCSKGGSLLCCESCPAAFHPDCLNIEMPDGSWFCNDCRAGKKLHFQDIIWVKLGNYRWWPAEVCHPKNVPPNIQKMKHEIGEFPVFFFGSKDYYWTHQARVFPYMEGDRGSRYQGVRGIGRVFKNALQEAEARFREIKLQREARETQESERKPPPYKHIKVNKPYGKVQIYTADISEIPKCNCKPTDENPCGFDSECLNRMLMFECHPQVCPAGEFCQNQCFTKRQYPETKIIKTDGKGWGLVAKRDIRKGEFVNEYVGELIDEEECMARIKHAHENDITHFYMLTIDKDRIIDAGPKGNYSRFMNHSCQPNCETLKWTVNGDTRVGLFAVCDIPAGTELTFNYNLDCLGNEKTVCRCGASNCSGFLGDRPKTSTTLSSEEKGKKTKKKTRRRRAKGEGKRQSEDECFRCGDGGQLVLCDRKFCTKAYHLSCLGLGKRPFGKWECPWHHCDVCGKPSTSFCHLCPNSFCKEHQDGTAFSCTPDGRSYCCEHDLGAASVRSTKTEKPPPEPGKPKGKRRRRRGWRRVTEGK

[23] = human group III sPLA2 inhibitors, dose response, biochemical, QFRET, IC50 (AID 743457);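 also: green fluorescence rise as the enzyme cleaves BODIPY PC-A2 in liposomes; potency for inhibition of the enzyme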
[24] = target: Wee1-like protein kinase (Homo sapiens, UniProt P30291); assay: G2/M cell cycle arrest in HeLa, late-stage follow-up, mechanism study for Wee1 degradation inhibitor project, FACS, panel member Wee1 Degradation (AID 2088)
[25] = target: G2/mitotic-specific cyclin-B1 (Homo sapiens, UniProt P14635); assay: G2/M cell cycle arrest in HeLa, late-stage follow-up, mechanism study for Wee1 degradation inhibitor project, FACS, panel member Cyclin B Degradation (AID 2088)
[26] = cytotoxicity in BJeHLT fibroblasts, dose response, counter-screen for Ras selective lethality project, BJeHLT cells, dry powder (AID 493052); assay type: functional, cell-based; conditions: Homo sapiens
[27] = viability loss in HRASV12 DRD fibroblasts, dose response, cell-based, DRD BJ fibroblasts, dry powder (AID 493049); assay type: functional
[28] = viability loss in BJeLR (HRASV12) cells, primary screen, Ras selective lethality project, cell-based, Alamar Blue, dry powder (AID 493045); assay type: functional
[29] = cytotoxicity in BJeH fibroblasts, dose response, counter-screen for Ras selective lethality project, BJeH cells, dry powder (AID 493054); assay type: functional, cell-based
[30] = target: T3, Kappa-type opioid receptor (Homo sapiens, UniProt P41145); assay type: functional
[31] = target: T4, Beta-galactosidase (Escherichia coli, UniProt Q8VNN2); assay type: functional
[32] = target: T3, Kappa-type opioid receptor; assay type: functional; remark: listed apart in the source
[33] = target: T4, Beta-galactosidase; assay: beta-galactosidase enzyme inhibitors and activators, dose response, artefact control for CCR6 antagonist project, biochemical, E. coli enzyme, set 3 (AID 504712); assay type: functional
[34] = target: T5, Corticotropin-releasing factor receptor 2/Corticotropin-releasing factor-binding protein (Homo sapiens, UniProt P24387+Q13324); assay: activators of CRF receptor 2 with binding protein – uHTS hits, confirmation (AID 602473); assay type: functional; conditions: read-out: EC50_Mean
T5 sequence (Q13324 whole entry): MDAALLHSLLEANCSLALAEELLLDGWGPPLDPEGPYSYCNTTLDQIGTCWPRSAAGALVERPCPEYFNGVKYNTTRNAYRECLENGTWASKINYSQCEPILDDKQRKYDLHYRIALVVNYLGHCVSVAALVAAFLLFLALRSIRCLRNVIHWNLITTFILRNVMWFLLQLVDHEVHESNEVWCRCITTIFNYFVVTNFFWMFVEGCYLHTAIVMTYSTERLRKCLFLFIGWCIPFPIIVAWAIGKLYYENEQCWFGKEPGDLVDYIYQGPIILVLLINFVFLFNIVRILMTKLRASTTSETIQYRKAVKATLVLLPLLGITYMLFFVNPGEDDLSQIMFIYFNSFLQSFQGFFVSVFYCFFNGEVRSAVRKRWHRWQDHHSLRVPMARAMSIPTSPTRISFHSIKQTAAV
T5 sequence (P24387 whole entry): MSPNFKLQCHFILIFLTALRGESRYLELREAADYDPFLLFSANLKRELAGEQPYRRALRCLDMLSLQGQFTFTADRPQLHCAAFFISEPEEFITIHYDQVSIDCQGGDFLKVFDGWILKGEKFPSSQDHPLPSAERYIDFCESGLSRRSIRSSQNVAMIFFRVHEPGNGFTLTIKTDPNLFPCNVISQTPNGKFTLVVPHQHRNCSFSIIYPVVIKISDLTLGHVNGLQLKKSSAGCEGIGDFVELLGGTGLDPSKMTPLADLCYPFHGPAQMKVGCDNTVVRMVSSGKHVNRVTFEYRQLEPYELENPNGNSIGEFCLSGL

T3 sequence (P41145 whole entry): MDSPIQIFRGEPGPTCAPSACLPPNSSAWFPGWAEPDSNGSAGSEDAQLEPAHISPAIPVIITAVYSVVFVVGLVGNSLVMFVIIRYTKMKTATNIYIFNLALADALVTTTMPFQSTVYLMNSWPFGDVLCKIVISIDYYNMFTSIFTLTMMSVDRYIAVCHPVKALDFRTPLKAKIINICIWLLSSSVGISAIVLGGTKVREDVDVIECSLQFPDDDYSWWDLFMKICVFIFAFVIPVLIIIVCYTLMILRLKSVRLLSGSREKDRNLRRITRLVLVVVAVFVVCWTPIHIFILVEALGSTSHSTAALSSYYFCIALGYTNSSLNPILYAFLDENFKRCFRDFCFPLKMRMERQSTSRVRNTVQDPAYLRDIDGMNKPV
T4 sequence (Q8VNN2 whole entry): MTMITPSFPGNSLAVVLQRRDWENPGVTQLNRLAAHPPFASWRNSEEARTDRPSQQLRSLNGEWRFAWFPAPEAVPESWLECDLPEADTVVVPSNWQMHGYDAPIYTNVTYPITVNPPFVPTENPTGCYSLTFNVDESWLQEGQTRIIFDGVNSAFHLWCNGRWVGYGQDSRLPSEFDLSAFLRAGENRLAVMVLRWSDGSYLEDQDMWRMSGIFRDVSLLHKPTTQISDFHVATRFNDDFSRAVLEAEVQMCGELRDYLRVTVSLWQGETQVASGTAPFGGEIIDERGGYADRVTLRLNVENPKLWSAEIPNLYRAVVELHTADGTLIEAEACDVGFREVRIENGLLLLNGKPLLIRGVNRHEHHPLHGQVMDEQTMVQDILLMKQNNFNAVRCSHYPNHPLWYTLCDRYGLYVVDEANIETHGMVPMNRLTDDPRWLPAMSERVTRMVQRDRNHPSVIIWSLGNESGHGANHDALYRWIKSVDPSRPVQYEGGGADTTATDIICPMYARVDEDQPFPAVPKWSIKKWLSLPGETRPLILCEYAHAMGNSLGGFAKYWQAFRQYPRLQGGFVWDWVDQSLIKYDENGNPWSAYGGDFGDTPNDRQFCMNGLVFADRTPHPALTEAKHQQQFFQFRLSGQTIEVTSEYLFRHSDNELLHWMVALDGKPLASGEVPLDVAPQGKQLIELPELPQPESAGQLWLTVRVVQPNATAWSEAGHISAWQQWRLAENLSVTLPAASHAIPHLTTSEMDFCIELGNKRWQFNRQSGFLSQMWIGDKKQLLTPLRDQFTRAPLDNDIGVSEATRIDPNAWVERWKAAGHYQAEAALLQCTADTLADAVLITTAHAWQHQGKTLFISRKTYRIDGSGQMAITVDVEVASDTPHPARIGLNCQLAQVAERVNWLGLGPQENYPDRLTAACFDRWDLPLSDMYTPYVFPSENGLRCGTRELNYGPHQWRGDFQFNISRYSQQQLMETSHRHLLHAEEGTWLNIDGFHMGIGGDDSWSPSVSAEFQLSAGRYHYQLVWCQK
Sequence of Glucose-6-phosphate 1-dehydrogenase (P11413 whole entry): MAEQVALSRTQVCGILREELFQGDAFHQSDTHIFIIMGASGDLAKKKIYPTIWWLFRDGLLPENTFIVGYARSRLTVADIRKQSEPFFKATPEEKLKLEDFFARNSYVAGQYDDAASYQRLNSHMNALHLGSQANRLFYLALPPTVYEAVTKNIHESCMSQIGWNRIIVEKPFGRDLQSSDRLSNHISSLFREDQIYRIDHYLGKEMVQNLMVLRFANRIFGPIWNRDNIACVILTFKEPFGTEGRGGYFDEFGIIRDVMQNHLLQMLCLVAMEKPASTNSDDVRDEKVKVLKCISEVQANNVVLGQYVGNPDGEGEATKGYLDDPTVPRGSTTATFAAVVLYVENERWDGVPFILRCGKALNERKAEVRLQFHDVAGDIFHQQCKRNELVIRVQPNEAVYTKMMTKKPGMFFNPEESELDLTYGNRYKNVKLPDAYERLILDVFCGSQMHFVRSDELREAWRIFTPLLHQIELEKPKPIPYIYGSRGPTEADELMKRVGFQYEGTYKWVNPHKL
Sequence of Beta Lactamase (Q932Y6 whole entry): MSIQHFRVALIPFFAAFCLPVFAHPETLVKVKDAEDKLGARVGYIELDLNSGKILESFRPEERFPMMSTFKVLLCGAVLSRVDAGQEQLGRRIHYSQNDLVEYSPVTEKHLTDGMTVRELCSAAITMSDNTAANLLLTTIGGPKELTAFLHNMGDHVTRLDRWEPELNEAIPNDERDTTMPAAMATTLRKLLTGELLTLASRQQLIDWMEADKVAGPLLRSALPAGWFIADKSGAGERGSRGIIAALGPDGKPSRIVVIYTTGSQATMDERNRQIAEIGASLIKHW
Sequence of Nonstructural protein 1 (Q194T2 whole entry): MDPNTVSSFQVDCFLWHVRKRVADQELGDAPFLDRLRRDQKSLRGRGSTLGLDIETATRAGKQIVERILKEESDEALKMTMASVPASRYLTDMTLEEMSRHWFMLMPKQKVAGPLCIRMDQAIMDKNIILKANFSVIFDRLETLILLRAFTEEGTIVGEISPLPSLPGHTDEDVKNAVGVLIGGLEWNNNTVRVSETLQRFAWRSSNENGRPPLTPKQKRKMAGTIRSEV
Sequence of Scavenger receptor class B member 1 (Q61009 whole entry): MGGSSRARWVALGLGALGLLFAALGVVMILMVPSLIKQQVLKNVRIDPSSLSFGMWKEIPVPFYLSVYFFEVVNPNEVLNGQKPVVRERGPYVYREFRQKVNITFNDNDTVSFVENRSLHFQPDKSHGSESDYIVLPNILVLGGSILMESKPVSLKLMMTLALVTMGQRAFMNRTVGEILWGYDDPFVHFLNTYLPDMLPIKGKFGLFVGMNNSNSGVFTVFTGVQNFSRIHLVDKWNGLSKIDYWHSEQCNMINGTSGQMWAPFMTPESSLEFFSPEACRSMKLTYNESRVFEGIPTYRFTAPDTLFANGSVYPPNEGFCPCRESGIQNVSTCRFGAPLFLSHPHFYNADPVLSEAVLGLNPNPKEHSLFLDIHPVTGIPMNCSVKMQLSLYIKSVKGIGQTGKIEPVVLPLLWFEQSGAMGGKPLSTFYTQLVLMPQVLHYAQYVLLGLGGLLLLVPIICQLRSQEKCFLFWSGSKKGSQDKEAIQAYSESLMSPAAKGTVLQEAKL
Sequence of Protein Rev (P04618 whole entry): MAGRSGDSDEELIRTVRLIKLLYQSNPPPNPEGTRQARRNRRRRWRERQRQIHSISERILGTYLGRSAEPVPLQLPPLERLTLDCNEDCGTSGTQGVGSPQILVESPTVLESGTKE
Sequence of Wee1-like protein kinase (P30291 whole entry): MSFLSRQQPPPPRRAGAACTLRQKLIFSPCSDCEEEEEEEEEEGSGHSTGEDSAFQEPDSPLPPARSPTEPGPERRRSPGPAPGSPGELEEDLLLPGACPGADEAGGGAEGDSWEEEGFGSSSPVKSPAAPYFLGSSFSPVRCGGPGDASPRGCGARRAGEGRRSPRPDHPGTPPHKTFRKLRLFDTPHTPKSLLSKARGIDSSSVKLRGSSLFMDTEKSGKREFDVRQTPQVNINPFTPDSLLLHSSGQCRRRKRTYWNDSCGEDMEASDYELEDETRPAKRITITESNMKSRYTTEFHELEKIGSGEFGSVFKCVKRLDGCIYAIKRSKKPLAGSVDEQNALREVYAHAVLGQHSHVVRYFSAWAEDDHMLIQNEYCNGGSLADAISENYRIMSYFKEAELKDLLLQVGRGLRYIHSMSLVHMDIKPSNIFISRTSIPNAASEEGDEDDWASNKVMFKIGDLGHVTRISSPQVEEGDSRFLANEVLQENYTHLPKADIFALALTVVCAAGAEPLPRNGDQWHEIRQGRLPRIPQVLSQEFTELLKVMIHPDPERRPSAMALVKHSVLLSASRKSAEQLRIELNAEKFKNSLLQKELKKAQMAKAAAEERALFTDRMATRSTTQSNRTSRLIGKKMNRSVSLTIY
Sequence of Female germline-specific tumor suppressor gld-1 (Q17339 whole entry): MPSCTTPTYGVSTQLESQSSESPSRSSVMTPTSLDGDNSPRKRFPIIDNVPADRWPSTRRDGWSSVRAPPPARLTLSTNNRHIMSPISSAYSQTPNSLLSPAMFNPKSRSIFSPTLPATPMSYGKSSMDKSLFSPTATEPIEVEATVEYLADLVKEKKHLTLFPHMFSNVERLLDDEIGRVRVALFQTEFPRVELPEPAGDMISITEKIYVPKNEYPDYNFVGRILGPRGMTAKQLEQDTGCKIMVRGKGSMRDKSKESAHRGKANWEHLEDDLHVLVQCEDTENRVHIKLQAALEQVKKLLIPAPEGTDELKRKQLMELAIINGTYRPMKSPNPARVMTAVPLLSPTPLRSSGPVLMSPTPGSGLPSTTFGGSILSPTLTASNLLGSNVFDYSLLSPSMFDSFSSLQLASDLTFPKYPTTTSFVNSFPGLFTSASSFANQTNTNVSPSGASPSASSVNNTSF
Sequence of Cyclin-dependent kinase 5/CDK5 activator 1 (Q00535 whole entry): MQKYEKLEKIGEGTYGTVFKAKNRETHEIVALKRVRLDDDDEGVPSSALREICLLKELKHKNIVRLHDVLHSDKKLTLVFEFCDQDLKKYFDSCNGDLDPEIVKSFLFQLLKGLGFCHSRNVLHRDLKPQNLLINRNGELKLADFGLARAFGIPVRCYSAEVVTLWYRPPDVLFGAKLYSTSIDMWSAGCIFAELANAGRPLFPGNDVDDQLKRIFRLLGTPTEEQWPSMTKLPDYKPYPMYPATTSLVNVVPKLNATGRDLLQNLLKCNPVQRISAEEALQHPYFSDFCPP
Sequence of Cyclin-dependent kinase 5/CDK5 activator 1 (Q15078 whole entry, further chain): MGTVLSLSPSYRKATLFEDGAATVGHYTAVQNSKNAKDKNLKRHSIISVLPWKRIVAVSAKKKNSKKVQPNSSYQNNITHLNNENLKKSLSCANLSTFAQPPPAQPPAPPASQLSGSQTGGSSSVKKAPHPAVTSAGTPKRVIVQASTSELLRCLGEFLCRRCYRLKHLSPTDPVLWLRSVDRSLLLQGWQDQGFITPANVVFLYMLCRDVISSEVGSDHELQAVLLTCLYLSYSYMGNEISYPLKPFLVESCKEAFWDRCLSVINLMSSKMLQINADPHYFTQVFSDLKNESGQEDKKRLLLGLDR

CCOc1ccc2nc(N3CCCN(C(=O)Nc4ccccc4C)CC3)c(C#N)cc2c1
IC50 [1]: 20.3 µM (not active) | IC50 [2]: > 59.7 µM (inactive) | CC50 [3]: > 40 µM (active) | IC50 [4]: 38.7 µM (active)

CCc1ccc(NC(=O)C(=O)NNC(=O)c2cccc(OC)c2)cc1
IC50 [5]: > 75 µM (active) | IC50 [6]: 10.5 µM (active)

CCCCOc1ccc(NC(=O)C(=O)NCCCn2ccnc2)cc1
EC50 [7]: 13.9 µM (active) | EC50 [8]: 18.5 µM (active) | EC50 [9]: 10.6 µM (active) | IC50 [10]: > 80 µM (inactive)

CCOc1ccc(NS(=O)(=O)c2ccc(C(=O)NNC(=O)c3ccccc3O)cc2)cc1
AC50 [11]: 11.1 µM (active)

CCN(CC)c1ccc(C(=C2C=CC(=[N+](CC)CC)C=C2)c2ccc(N(CC)CC)cc2)cc1
IC50 [12]: 44.7 µM (inactive) | AC50 [13]: 31.9 µM (active) | AC50 [14]: 12.3 µM (active) | IC50 [15]: 0.774 µM (active) | AC50 [16]: 0.57 µM (active) | IC50 [17]: 10.9 µM (inactive) | IC50 [18]: 10.8 µM (inactive) | CC50 [19]: 4.15 µM (active) | IC50 [20]: 20.6 µM (active) | IC50 [21]: > 80 µM (inactive) | AC50 [22]: 1.01 µM (active) | IC50 [23]: > 40.6 µM (inactive)

Cc1cc(O)nc(-n2nc(C)cc2NC(=O)Cc2ccc(F)cc2)n1
EC50 [24]: > 49.7 µM (inactive) | EC50 [25]: > 49.7 µM (inactive)

COc1ccc(N(CC(=O)NCCc2ccccc2)C(=O)CCl)cc1Cl
AC50 [26]: 0.531 µM (active) | AC50 [27]: 0.223 µM (active) | AC50 [28]: 0.231 µM (active) | AC50 [29]: 0.793 µM (active)

Cc1ccc(-n2[nH]c(C)c(/C=N/N3C(=O)c4cccc5cccc(c45)C3=O)c2=O)cc1
IC50 [30]: 6.32 µM (active) | EC50 [31]: > 31.5 µM (inactive) | IC50 [32]: > 32 µM | IC50 [33]: > 66.6 µM (inactive) | EC50 [34]: 3.95 µM (active)
